Active and inactive are the calls of the source. No rule for the calls is given here. Bridge positions count the residues as written; N and C are the ends. Peptide text beside a SMILES is read from it. * marks the point of attachment. ξ: configuration not given here. Pentadecanoyl(3ξ-OH,15-Gua) = N=C(N)NCCCCCCCCCCCCC(O)CC(=O)*
Target: Ubiquitin carboxyl-terminal hydrolase 8 (Homo sapiens) (UniProt P40818)
Experiment: Ubiquitin-specific protease 8 inhibitors, concentration-effect, biochemical, validation of initial actives (AID 1645862);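 also: potency reflects inhibition of USP8 cleavage of a ubiquitin rhodamine substrate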
Conditions: recombinant USP8 deubiquitinase activity assay

Ubiquitin carboxyl-terminal hydrolase 8 (Homo sapiens), sequence (P40818 whole entry, looked up): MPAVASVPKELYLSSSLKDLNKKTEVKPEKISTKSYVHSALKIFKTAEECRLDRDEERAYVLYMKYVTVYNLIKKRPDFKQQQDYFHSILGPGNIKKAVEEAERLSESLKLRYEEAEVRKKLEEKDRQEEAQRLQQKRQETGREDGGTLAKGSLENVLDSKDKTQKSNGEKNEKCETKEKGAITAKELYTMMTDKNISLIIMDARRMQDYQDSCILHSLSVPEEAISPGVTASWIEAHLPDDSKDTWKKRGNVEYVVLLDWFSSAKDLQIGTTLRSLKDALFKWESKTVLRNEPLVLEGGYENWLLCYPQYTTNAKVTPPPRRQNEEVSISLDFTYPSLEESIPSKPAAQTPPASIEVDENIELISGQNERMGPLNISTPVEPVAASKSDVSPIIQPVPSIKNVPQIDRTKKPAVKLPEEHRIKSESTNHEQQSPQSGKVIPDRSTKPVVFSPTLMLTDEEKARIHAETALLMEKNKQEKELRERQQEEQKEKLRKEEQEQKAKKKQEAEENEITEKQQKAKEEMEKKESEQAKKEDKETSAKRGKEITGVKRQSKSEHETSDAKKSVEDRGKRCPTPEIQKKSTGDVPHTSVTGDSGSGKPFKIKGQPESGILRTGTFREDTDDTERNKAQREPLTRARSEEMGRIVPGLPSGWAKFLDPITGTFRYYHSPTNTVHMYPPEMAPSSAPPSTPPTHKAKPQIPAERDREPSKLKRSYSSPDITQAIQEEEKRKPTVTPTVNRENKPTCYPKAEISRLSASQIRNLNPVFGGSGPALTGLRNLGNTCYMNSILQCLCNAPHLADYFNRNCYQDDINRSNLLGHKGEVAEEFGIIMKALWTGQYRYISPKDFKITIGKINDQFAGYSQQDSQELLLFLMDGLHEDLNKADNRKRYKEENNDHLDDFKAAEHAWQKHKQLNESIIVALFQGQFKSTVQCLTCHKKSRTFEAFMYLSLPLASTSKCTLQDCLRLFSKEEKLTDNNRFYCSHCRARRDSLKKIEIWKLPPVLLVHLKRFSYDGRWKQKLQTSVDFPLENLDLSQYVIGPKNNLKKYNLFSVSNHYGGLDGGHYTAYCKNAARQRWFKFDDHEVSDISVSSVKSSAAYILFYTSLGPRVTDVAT

Row | SMILES | IC50
1 | COc1ccc(S(=O)(=O)NC2CC(=O)N(c3ccc(Cl)cc3)C2)cc1 (stereo not drawn) | > 40 µM (inactive)
2 | N#Cc1ccc(NC(=O)Nc2cccn(Cc3ccccc3F)c2=O)cc1 | > 40 µM (inactive)
3 | Cc1nc(SCC(=O)Nc2ccc(S(N)(=O)=O)cc2)c2cnn(-c3ccccc3)c2n1 | > 40 µM (inactive)
4 | O=C(Cn1cc(C(=O)C(F)(F)F)c2ccccc21)N1CCc2ccccc21 | > 40 µM (inactive)
5 | CCc1ccccc1NC(=O)Cn1c(=O)n(CC(=O)NCc2ccccc2Cl)c(=O)c2sccc21 | > 40 µM (inactive)
6 | COc1ccccc1/C=C/C(=O)NC(Cc1ccccc1)c1nc2ccccc2[nH]1 (stereo not drawn) | > 40 µM (inactive)
7 | Cn1c(COc2cccc3cccnc23)nnc1SCC(=O)c1ccc(Cl)cc1Cl | > 40 µM (inactive)
8 | COc1cc(OC)c(NC(=O)Cn2c(=O)n(Cc3ccccc3Cl)c(=O)c3cc(OC)c(OC)cc32)cc1Cl | > 40 µM (inactive)
9 | O=c1c2ccccc2nc(/C=C/c2ccco2)n1Cc1ccccc1 | > 40 µM (inactive)
10 | CCOC(=O)CCc1c(C)c2ccc(OCC(=O)c3ccc(-c4ccccc4)cc3)c(C)c2oc1=O | > 40 µM (inactive)
11 | CCc1cccc(CC)c1NC(=O)COC(=O)c1cc2cccc(OC)c2oc1=O | > 40 µM (inactive)
12 | CNC(=O)c1cc2nc(N(C)C)n(-c3ccc(F)cc3)c2s1 | > 40 µM (inactive)
13 | CCOc1ncccc1C(=O)Nc1ccnn1Cc1ccccc1 | > 40 µM (inactive)
14 | Cc1ccccc1NC(=O)Cn1ccc2ccn(Cc3ccccc3)c2c1=O | > 40 µM (inactive)
15 | COc1ccc(Cl)cc1NC(=O)c1nc(-c2cn(-c3ccccc3)nn2)no1 | > 40 µM (inactive)
16 | COc1ccc(-c2n[nH]n3c2nc(=O)c2ccc(C(=O)NCc4ccco4)cc23)cc1 | > 40 µM (inactive)
17 | Cc1cccc(C(=O)OCC(=O)Nc2ccc3[nH]c(=O)[nH]c3c2)c1C | > 40 µM (inactive)
18 | O=C(/C=C/c1c(F)cccc1Cl)N1CCc2ccccc2C1 | 22 µM
19 | CC(C)=CCc1c2c(c3occ(-c4ccc(O)cc4)c(=O)c3c1O)C=CC(C)(C)O2 | > 40 µM (inactive)
20 | COc1ccc(-n2c(=O)c3ccc(C(=O)NCCc4ccccc4)cc3n(CC(=O)NCc3ccco3)c2=O)cc1 | > 40 µM (inactive)
21 | COc1ccc(NC(=O)Nc2ccc(F)c(-c3nnc(-c4ccccc4)o3)c2)c(OC)c1 | > 40 µM (inactive)
22 | Cc1ccc(NC(=O)c2nnn(CC(=O)Nc3cccc(C)c3C)c2N)cc1C | > 40 µM (inactive)

Row | SMILES | IC50
23 | CC(=O)[C@H]1c2c(c(O)c3c(O)cccc3c2-c2c3c(c(O)c4c(O)cccc24)C(=O)C[C@](C)(O)[C@H]3C(C)=O)C(=O)C[C@]1(C)O | 24.5 µM
24 | CC/C=C\C/C=C\C/C=C\CCCCCCCC(=O)O | 17.7 µM
25 | Cc1ccc(-n2c(=O)c3ccc(C(=O)NCc4ccco4)cc3n(CC(=O)NCCC3=CCCCC3)c2=O)cc1 | > 40 µM (inactive)
26 | O=C(C1=CSCCO1)N1CCc2ccccc2C1 | > 40 µM (inactive)
27 | O=C(c1cnc2ccccc2n1)N1CCC(S(=O)(=O)c2ccc(-c3ccco3)cc2)CC1 | > 40 µM (inactive)
28 | O=c1cc(Cc2ccccc2)nc2c(-c3ccccc3)c(COc3ccccc3)[nH]n12 | > 40 µM (inactive)
29 | O=C(CCCc1nnc2c(=O)n(-c3cccc(F)c3)ccn12)NCc1ccc(Cl)cc1 | > 40 µM (inactive)
30 | O=C1c2c(O)c(Cl)cc3c2[C@@]2(Oc4ccc(O)c5c4[C@]3(O2)[C@@H]2O[C@@H]2C5=O)[C@@H]2O[C@H]12 | 1.09 µM
31 | Cc1nc(-c2noc(-c3cccc(F)c3)n2)cn1CC(=O)Nc1ccccc1 | 39.2 µM
32 | Cc1cc(=O)[nH]c(SCC(=O)c2cc(C)n(CCC3=CCCCC3)c2C)c1C#N | > 40 µM (inactive)
33 | Cn1nc(Cl)c(Cl)c1Oc1ccc(S(=O)(=O)Nc2ccc(Oc3ccc(C(F)(F)F)cn3)c(Cl)c2)cc1 | > 40 µM (inactive)
34 | O=C(Nc1ccc(-c2cn3ccsc3n2)cc1)c1ccc(Cl)c([N+](=O)[O-])c1 | 21.4 µM
35 | CCOc1ccc(-c2nnc(-c3cnc4onc(C5CCCC5)c4c3)o2)cc1 | > 40 µM (inactive)
36 | COc1cccc(NC(=O)c2oc3ccccc3c2NC(=O)COc2cccc(OC)c2)c1 | > 40 µM (inactive)
37 | CCOc1ccc2c(c1)c(=O)c(C(=O)c1ccccc1)cn2CC(=O)Nc1ccccc1 | > 40 µM (inactive)
38 | COc1ccc(C(=O)CSc2nnc(-c3cc4ccccc4o3)n2C)cc1 | > 40 µM (inactive)
39 | COc1ccccc1N1CCN(C(=O)c2ccc3c(=O)n(CCc4ccccc4)c(=O)[nH]c3c2)CC1 | > 40 µM (inactive)
40 | CCOc1ccc(C2SCC(=O)Nc3c2c(=O)[nH]n3C2CCCCC2)cc1 (stereo not drawn) | > 40 µM (inactive)
41 | O=C(NCc1ccc2c(c1)OCO2)c1cn(-c2cccc(Cl)c2)nn1 | > 40 µM (inactive)
42 | Cc1nc(-c2ccccc2)sc1-c1nc(-c2ccccc2)ncc1S(=O)(=O)c1ccccc1 | > 40 µM (inactive)
43 | O=C(COc1ccc(Cl)cc1Cl)Nc1ccccc1-c1nc2ccccc2[nH]1 | > 40 µM (inactive)
44 | N#Cc1ccccc1NC(=O)c1cc2c(s1)-c1ccccc1S(=O)(=O)C2 | > 40 µM (inactive)

Row | SMILES | IC50
45 | CC1NC(=O)C(CC(N)=O)NC(=O)C(C(C)O)NC(=O)C(Cc2ccc(O)cc2)NC(=O)C(C(C)C)NC(=O)C(NC(=O)CC(O)CCCCCCCCCCCCN=C(N)N)C(C)OC1=O (stereo not drawn) ({Pentadecanoyl(3ξ-OH,15-Gua)}-TVYTNA; ester 1-C; configuration not given here) | > 40 µM (inactive)
46 | O=c1[nH]c(C2CCN(S(=O)(=O)c3ccc(S(=O)(=O)NC4CCCCC4)cc3)CC2)nc2c1nnn2Cc1c(Cl)cccc1Cl | > 40 µM (inactive)
47 | CC(=O)CSc1nc2sc3c(c2c(=O)n1-c1ccccc1)CCCC3 | > 40 µM (inactive)
48 | Cc1ccc(NC(=O)Nc2nnc(CC(=O)NCc3ccccc3)s2)c(Cl)c1 | > 40 µM (inactive)
49 | COc1cc(C(=O)Nc2ccc(C#N)cc2)ccc1OCC(=O)Nc1ccccc1C(F)(F)F | > 40 µM (inactive)
50 | COc1ccc(NC(=O)COc2cc(C)nc(-c3ccc(C)cc3)n2)c(OC)c1 | > 40 µM (inactive)
51 | Cc1nnc(-c2ccc3ccn(CC(=O)N4CCN(c5ccccc5)CC4)c3c2)o1 | > 40 µM (inactive)
52 | CC1OC2CC(O)C1(O)C1=C2C(O)=C(C(N)=O)C(=N)C1=O (stereo not drawn) | 1.56 µM
53 | COc1ccc(CNC(=O)C(C)n2nc(-c3ccco3)c(-c3cc(C)no3)cc2=O)cc1 (stereo not drawn) | > 40 µM (inactive)
54 | COC(=O)c1ccc(Nc2cc(C)nc3cc(C(F)(F)F)ccc23)cc1 | > 40 µM (inactive)
55 | O=C(NC1CCCCC1)C(c1ccc(F)cc1)N(C(=O)C1COc2ccccc2O1)c1ccc2c(c1)OCO2 (stereo not drawn) | > 40 µM (inactive)
56 | Cc1ccc(NC(=O)c2cc(-c3ccncc3)n[nH]2)cc1Cl | > 40 µM (inactive)
57 | Cc1cc(-c2ccc(S(=O)(=O)NCc3ccc(Cl)cc3)s2)on1 | > 40 µM (inactive)
58 | Cc1cc2nc(SCC(=O)c3ccc(O)cc3)[nH]c2cc1C | > 40 µM (inactive)
59 | O=C(CN1C(=O)c2ccccc2C1=O)Nc1nc(-c2ccc(Br)cc2)cs1 | > 40 µM (inactive)
60 | Cc1cccc(N2C(=O)/C(=C\c3ccc4c(c3)OCCO4)c3ccccc3C2=O)c1 | > 40 µM (inactive)
61 | O=C(COC(=O)c1ccc(NS(=O)(=O)c2ccc(F)c(F)c2)cc1)Nc1ccc(OCc2ccccc2)cc1 | > 40 µM (inactive)
62 | COc1ccccc1NC(=O)C1=C(C)Nc2nc(SCc3ccccc3F)nn2C1c1ccccn1 (stereo not drawn) | > 40 µM (inactive)
63 | COC(=O)c1ccccc1NC(=O)Cn1c(=O)n(Cc2ccc(C(=O)NCc3ccco3)cc2)c(=O)c2ccccc21 | > 40 µM (inactive)
64 | COc1ccc(C(=O)Nc2ccccc2C(=O)NC(Cc2ccc(O)cc2)C(=O)NNC(=O)Cc2ccc(OC)c(OC)c2)cc1 (stereo not drawn) | > 40 µM (inactive)
65 | O=C(c1cnc2[nH][nH]c(=O)c2c1)c1cc(Cl)cc(Cl)c1O | 10.7 µM
66 | Fc1ccccc1-c1nnc(C2(c3ccc4c(c3)OCO4)CCOCC2)o1 | > 40 µM (inactive)

Row | SMILES | IC50
67 | CCC(=O)Nc1nc2cc(NC(=O)Nc3cccc(C)c3)ccc2s1 | > 40 µM (inactive)
68 | C/C(=C\Cc1c(O)cc(C)c(C=O)c1O)CC[C@@]1(C)[C@H](C)CCC(=O)[C@@H]1C | > 40 µM (inactive)
69 | N#Cc1cc(C(=O)c2cc(Cl)ccc2O)cn(-c2ccccn2)c1=O | > 40 µM (inactive)
70 | Cn1c(=O)[nH]c(=O)c2c1nc(N1CCc3ccccc3C1)n2CCSc1nnnn1-c1ccccc1 | > 40 µM (inactive)
71 | Cc1ccc(NC(=O)COc2ccccc2/C=C2/NC(=O)N(Cc3ccc(F)cc3)C2=O)cc1 | > 40 µM (inactive)
72 | O=C(CC1C(=O)N(C2CCCC2)c2nc3ccccc3n21)Nc1ccccc1 (stereo not drawn) | > 40 µM (inactive)
73 | CC(=O)Nc1ccc(S(=O)(=O)NCc2ccc(C(=O)NCCc3ccc(Cl)cc3)cc2)cc1 | > 40 µM (inactive)
74 | O=C(CSc1nc2c(cnn2-c2ccccc2)c(=O)[nH]1)Nc1ccc(Cl)cc1F | 32.1 µM
75 | CC(C)=CCC[C@H](C(=O)O)[C@@H]1CC[C@]2(C)C3=C(CC[C@@]12C)[C@@]1(C)CCC(=O)C(C)(C)C1CC3 (stereo partly drawn) | > 40 µM (inactive)
76 | CCC(=O)Nc1nc2cc(NC(=O)Nc3ccccc3Cl)ccc2s1 | > 40 µM (inactive)
77 | O=C(c1cccnc1)N1CCN(c2cc(-c3ccccc3)[nH]n2)CC1 | > 40 µM (inactive)
78 | O=C(CNC(=O)c1ccc2nc(-n3cccc3)sc2c1)NCc1ccccc1 | > 40 µM (inactive)
79 | CN(C)c1ccc(CNC(=O)c2nnc(C(=O)Nc3ccccc3)s2)cc1 | > 40 µM (inactive)
80 | CN(C(=O)C1(c2ccccc2)CC1)c1nc2c(s1)CCc1occc1-2 | > 40 µM (inactive)
81 | O=C(NCCc1nc2ccccc2n1CCOc1ccccc1Cl)C1CCCCC1 | > 40 µM (inactive)
82 | COc1ccc(CC(=O)Nc2ccccc2-c2nc3ccccc3[nH]2)cc1OC | > 40 µM (inactive)
83 | Cn1c(=O)c2ncnnc2n(C)c1=O | 0.717 µM
84 | O=c1c(S(=O)(=O)c2cc(F)cc(F)c2)c[nH]c2cc(Cl)ccc12 | 25.6 µM
85 | O=C(COc1ncnc2sc3c(c12)CCCC3)Nc1ccc2c(c1)OCO2 | > 40 µM (inactive)
86 | Cn1cc(C(=O)Nc2ccccc2)c2[nH]c(=O)n(Cc3ccccc3)c(=O)c21 | > 40 µM (inactive)
87 | COc1ccc(OC)c(-c2cn3ccn(-c4ccc(F)c(Cl)c4)c(=O)c3n2)c1 | 20.6 µM
88 | Cc1ccc(-n2cc(-c3noc(C(=O)Nc4ccc(F)cc4C)n3)nn2)cc1 | 7.16 µM

Reference: PubChem BioAssay AID1645862 (Buhrlage Lab, Dana-Farber Cancer Institute and Novartis …, 2021)
